Laboratory results: ChEMBL document CHEMBL6120963, “Discovery of Novel PROTAC SIRT6 Degraders with Potent Efficacy against Hepatocellular Carcinoma” (J Med Chem, 2024)
Active and inactive are the calls of the source. No cut-off for these calls is given here.

What was measured:
[1] = molecular target: T1, Protein cereblon/NAD-dependent protein deacylase sirtuin-6 (Homo sapiens, UniProt Q8N6T7+Q96SW2); assay: PROTAC activity at CRBN/SIRT6 in human SK-HEP1 cells assessed as induction of SIRT6 degradation at 0.5 uM incubated for 36 hrs by In-Cell ELISA relative to control; format: cell-based
T1 sequence (Q8N6T7 2-355 limits assumed): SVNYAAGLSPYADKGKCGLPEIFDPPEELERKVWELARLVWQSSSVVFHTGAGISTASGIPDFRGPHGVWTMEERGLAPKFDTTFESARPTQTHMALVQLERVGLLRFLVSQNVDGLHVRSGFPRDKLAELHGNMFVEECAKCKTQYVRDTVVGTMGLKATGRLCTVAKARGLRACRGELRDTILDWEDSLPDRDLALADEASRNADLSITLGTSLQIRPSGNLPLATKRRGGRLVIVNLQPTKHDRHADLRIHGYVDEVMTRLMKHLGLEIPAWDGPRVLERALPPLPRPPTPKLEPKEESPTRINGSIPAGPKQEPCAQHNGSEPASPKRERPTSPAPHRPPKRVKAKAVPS
T1 sequence (Q96SW2 whole entry partner): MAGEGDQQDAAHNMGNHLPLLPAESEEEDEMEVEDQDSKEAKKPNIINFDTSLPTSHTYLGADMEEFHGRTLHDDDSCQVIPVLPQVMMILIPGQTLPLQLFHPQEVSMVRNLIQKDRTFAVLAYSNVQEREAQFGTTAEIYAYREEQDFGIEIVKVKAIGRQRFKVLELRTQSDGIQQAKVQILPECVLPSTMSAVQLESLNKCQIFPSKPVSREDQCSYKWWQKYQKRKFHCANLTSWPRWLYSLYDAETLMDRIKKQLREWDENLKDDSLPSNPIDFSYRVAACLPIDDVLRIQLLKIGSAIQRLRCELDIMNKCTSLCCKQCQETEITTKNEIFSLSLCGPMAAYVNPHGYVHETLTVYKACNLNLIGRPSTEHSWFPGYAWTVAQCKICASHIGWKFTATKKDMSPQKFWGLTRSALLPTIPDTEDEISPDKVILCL

[2] = molecular target: T1, Protein cereblon/NAD-dependent protein deacylase sirtuin-6; assay: PROTAC activity at CRBN/SIRT6 in human SK-HEP1 cells assessed as induction of SIRT6 degradation at 5 uM incubated for 36 hrs by In-Cell ELISA relative to control; format: cell-based
[3] = molecular target: T1, Protein cereblon/NAD-dependent protein deacylase sirtuin-6; assay: PROTAC activity at CRBN/SIRT6 in human SK-HEP1 cells assessed as induction of SIRT6 degradation at 200 nM incubated for 36 hrs by In-Cell ELISA relative to control; format: cell-based
[4] = molecular target: T1, Protein cereblon/NAD-dependent protein deacylase sirtuin-6; assay: PROTAC activity at CRBN/SIRT6 in human SK-HEP1 cells assessed as induction of SIRT6 degradation at 2 uM incubated for 36 hrs by In-Cell ELISA relative to control; format: cell-based
[5] = molecular target: T1, Protein cereblon/NAD-dependent protein deacylase sirtuin-6; assay: PROTAC activity at CRBN/SIRT6 in human SK-HEP1 cells assessed as induction of SIRT6 degradation at 2 to 3 uM incubated for 36 hrs by Western blot analysis; format: cell-based; details: dose 2-3 µM
SK-HEP1 [6] = assay: Induction of SIRT6 degradation in human SK-HEP1 cells at 0.5 uM incubated for 36 hrs by In-Cell ELISA relative to control; format: cell-based
SK-HEP1 [7] = assay: Induction of SIRT6 degradation in human SK-HEP1 cells at 5 uM incubated for 36 hrs by In-Cell ELISA relative to control; format: cell-based
[8] = molecular target: NAD-dependent protein deacylase sirtuin-6 (Homo sapiens) (UniProt Q8N6T7); assay: Inhibition of SIRT6 in human SK-HEP1 cells assessed as increase in H3K9Ac level incubated for 36 hrs by Western blot analysis; format: cell-based; details: dose 1.25-20 µM
NAD-dependent protein deacylase sirtuin-6 (Homo sapiens), sequence (Q8N6T7 whole entry): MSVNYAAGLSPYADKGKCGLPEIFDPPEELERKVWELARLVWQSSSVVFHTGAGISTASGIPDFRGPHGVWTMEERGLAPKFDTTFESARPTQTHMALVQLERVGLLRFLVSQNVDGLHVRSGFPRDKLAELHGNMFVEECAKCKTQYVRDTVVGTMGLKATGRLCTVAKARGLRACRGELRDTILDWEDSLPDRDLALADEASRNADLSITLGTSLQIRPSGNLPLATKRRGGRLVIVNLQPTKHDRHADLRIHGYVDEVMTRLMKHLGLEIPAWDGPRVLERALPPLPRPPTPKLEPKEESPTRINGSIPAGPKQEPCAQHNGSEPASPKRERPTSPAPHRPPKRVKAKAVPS

SK-HEP1 [9] = assay: Cytotoxicity against human SK-HEP1 cells incubated for 72 hrs by CCK8 assay; format: functional, cell-based; details: SK-HEP1, 72 h

Row | Compound | Activity [1] [%] | Activity [2] [%] | Activity [3] [%] | Activity [4] [%] | Activity [5] | also measured
1 | Nc1cc(N2CCN(CCCC(=O)Nc3cccc4c3C(=O)N(C3CCC(=O)NC3=O)C4=O)CC2)ccc1[N+](=O)[O-] (stereo unspecified) | 72.1 | 87.3 |  |  |  | 
2 | Nc1cc(N2CCN(CC3CCCN(c4ccc5c(c4)C(=O)N(C4CCC(=O)NC4=O)C5=O)C3)CC2)ccc1[N+](=O)[O-] (stereo unspecified) |  |  | < 10 | 87.1 | Active | 
3 | Nc1cc(N2CCN(CCNCC3CCN(c4cc5c(cc4F)C(=O)N(C4CCC(=O)NC4=O)C5=O)CC3)CC2)ccc1[N+](=O)[O-] (stereo unspecified) |  |  | 60.5 | 84.7 | Active | 
4 | Nc1cc(N2CCN(CCNCC3CCN(c4ccc5c(c4)C(=O)N(C4CCC(=O)NC4=O)C5=O)CC3)CC2)ccc1[N+](=O)[O-] (stereo unspecified) |  |  |  | < 10 |  | 
5 | Nc1cc(N2CCN(CCCCCC(=O)Nc3cccc4c3C(=O)N(C3CCC(=O)NC3=O)C4=O)CC2)ccc1[N+](=O)[O-] (stereo unspecified) | 47.8 | 36.8 |  |  |  | 
6 | Nc1cc(N2CCN(CCNCCCC3CCN(c4ccc5c(c4)C(=O)N(C4CCC(=O)NC4=O)C5=O)CC3)CC2)ccc1[N+](=O)[O-] (stereo unspecified) |  |  | 53.2 | 82.4 | Active | 
7 | Nc1cc(N2CCN(CC3CN(c4cc5c(cc4F)C(=O)N(C4CCC(=O)NC4=O)C5=O)C3)CC2)ccc1[N+](=O)[O-] (stereo unspecified) |  |  | < 10 | 20.6 |  | 
8 | Nc1cc(N2CCN(CC3CN(c4ccc5c(c4)C(=O)N(C4CCC(=O)NC4=O)C5=O)C3)CC2)ccc1[N+](=O)[O-] (stereo unspecified) |  |  | 50.6 | 11 |  | 
9 | Nc1cc(N2CCN(CCNCC3C4CN(c5ccc6c(c5)C(=O)N(C5CCC(=O)NC5=O)C6=O)CC34)CC2)ccc1[N+](=O)[O-] (stereo unspecified) |  |  |  | 15.4 |  | 
10 | Nc1cc(N2CCN(CCC(=O)Nc3cccc4c3C(=O)N(C3CCC(=O)NC3=O)C4=O)CC2)ccc1[N+](=O)[O-] (stereo unspecified) | 25.6 | 47.2 |  |  |  | 
11 | Nc1cc(N2CCN(CCNCC3CCN(c4cc5c(cc4F)C(=O)N(C4CCC(=O)NC4=O)C5=O)C3)CC2)ccc1[N+](=O)[O-] (stereo unspecified) |  |  | 66.2 | 78.4 | Active | 
12 | Nc1cc(N2CCN(C(=O)COc3cccc4c3C(=O)N(C3CCC(=O)NC3=O)C4=O)CC2)ccc1[N+](=O)[O-] (stereo unspecified) | 32.2 | 15.8 |  |  |  | 
13 | Nc1cc(N2CCN(CCCCC(=O)Nc3cccc4c3C(=O)N(C3CCC(=O)NC3=O)C4=O)CC2)ccc1[N+](=O)[O-] (stereo unspecified) | 18.2 | 49.3 |  |  |  | 
14 | Nc1cc(N2CCN(CC3C4CN(c5cc6c(cc5F)C(=O)N(C5CCC(=O)NC5=O)C6=O)CC34)CC2)ccc1[N+](=O)[O-] (stereo unspecified) |  |  | 89.4 | 95.6 | Active | 
15 | Nc1cc(N2CCN(CCNCCCC3CCN(c4cc5c(cc4F)C(=O)N(C4CCC(=O)NC4=O)C5=O)CC3)CC2)ccc1[N+](=O)[O-] (stereo unspecified) |  |  | 64.3 | 97.9 | Active | 
16 | Nc1cc(N2CCN(C(=O)CNc3cccc4c3C(=O)N(C3CCC(=O)NC3=O)C4=O)CC2)ccc1[N+](=O)[O-] (stereo unspecified) |  | 15.4 |  |  |  | 
17 | CN1CCN(c2ccc([N+](=O)[O-])c(N)c2)CC1 |  |  |  |  |  | Activity (SK-HEP1 [6]): 1.8%; Activity (SK-HEP1 [7]): 4.9%; inhibition [8]: Dose-dependent-effect; IC50 (SK-HEP1 [9]): 4.26 µM
18 | Nc1cc(N2CCN(CCNCCC3CCN(c4ccc5c(c4)C(=O)N(C4CCC(=O)NC4=O)C5=O)CC3)CC2)ccc1[N+](=O)[O-] (stereo unspecified) |  |  | 49.3 | 73.6 |  | 
19 | Nc1cc(N2CCN(CCNC(=O)CNc3cccc4c3C(=O)N(C3CCC(=O)NC3=O)C4=O)CC2)ccc1[N+](=O)[O-] (stereo unspecified) | 86.5 | 91.4 |  |  | Active | 
20 | Nc1cc(N2CCN(CCNC(=O)COc3cccc4c3C(=O)N(C3CCC(=O)NC3=O)C4=O)CC2)ccc1[N+](=O)[O-] (stereo unspecified) | 85.7 | 72.3 |  |  |  | 
